# Tested on: 616215-338-R-J1-PDC complex spheroid viability
# Assay: Anticancer human tumor 616215-338-R-J1-PDC patient-derived colon adenocarcinoma cell line growth inhibition [POLQ]
# Conditions: for IC50: curve of first compound; for viability, T/C: stronger effect = lower value
# How it was run: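 PDC + HUVEC + MSC complex spheroids; POLQ inhibitors ± partner drugs; top conc. at/near clinical Cmax, else 10 microM (SN-38 1 microM), half-log dilutions; 37 degrees C, 5% CO2.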
# [1] = second compound 0.0316 µM, first compound 0.0316 µM
# [2] = second compound 0.0316 µM, first compound 0.1 µM
# [3] = second compound 0.0316 µM, first compound 0.316 µM
# [4] = second compound 0.0316 µM, first compound 1 µM
# [5] = second compound 0.0316 µM, first compound 3.16 µM
# [6] = second compound 0.0316 µM, first compound 10 µM
# [7] = second compound 0.1 µM, first compound 0.0316 µM
# [8] = second compound 0.1 µM, first compound 0.1 µM
# [9] = second compound 0.1 µM, first compound 0.316 µM
# [10] = second compound 0.1 µM, first compound 1 µM
# [11] = second compound 0.1 µM, first compound 3.16 µM
# [12] = second compound 0.1 µM, first compound 10 µM
# [13] = second compound 0.316 µM, first compound 0.0316 µM
# [14] = second compound 0.316 µM, first compound 0.1 µM
# [15] = second compound 0.316 µM, first compound 0.316 µM
# [16] = second compound 0.316 µM, first compound 1 µM
# [17] = second compound 0.316 µM, first compound 3.16 µM
# [18] = second compound 0.316 µM, first compound 10 µM
# [19] = second compound 1 µM, first compound 0.0316 µM
# [20] = second compound 1 µM, first compound 0.1 µM
# [21] = second compound 1 µM, first compound 0.316 µM
# [22] = second compound 1 µM, first compound 1 µM
# [23] = second compound 1 µM, first compound 3.16 µM
# [24] = second compound 1 µM, first compound 10 µM
# [25] = second compound 3.16 µM, first compound 0.0316 µM
# [26] = second compound 3.16 µM, first compound 0.1 µM
# [27] = second compound 3.16 µM, first compound 0.316 µM
# [28] = second compound 3.16 µM, first compound 1 µM
# [29] = second compound 3.16 µM, first compound 3.16 µM
# [30] = second compound 3.16 µM, first compound 10 µM
# [31] = second compound 10 µM, first compound 0.0316 µM
# [32] = second compound 10 µM, first compound 0.1 µM
# [33] = second compound 10 µM, first compound 0.316 µM
# [34] = second compound 10 µM, first compound 1 µM
# [35] = second compound 10 µM, first compound 3.16 µM
# [36] = second compound 10 µM, first compound 10 µM
# 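Note: spheroids exposed to compounds for one week before readout.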
# 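Throughout, for viability, T/C: percent viability relative to DMSO vehicle wells taken as 100%.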
smiles,measurement,setting,value
CCc1cc2c(N3CCc4c(cc(Cn5ccnc5)cc4-c4cn(C)nc4C(F)(F)F)C3=O)ccnc2c(OC)n1 + Nc1ccc(C#CCN(C(=O)Cc2ncc(C(F)(F)F)cc2C(F)(F)F)c2ccc(F)cc2)nn1,IC50,second compound 0.0316 µM,> 10 µM
same,IC50,second compound 0.1 µM,6.52 µM
same,IC50,second compound 0.316 µM,5.19 µM
same,IC50,second compound 1 µM,3.07 µM
same,IC50,second compound 3.16 µM,4.4 µM
same,IC50,second compound 10 µM,2.69 µM
same,"viability, T/C",[1],118%
same,"viability, T/C",[2],111%
same,"viability, T/C",[3],95.6%
same,"viability, T/C",[4],56.6%
same,"viability, T/C",[5],54.1%
same,"viability, T/C",[6],49.1%
same,"viability, T/C",[7],117%
same,"viability, T/C",[8],120%
same,"viability, T/C",[9],88.8%
same,"viability, T/C",[10],66.8%
same,"viability, T/C",[11],55.8%
same,"viability, T/C",[12],45.4%
same,"viability, T/C",[13],121%
same,"viability, T/C",[14],113%
same,"viability, T/C",[15],98.9%
same,"viability, T/C",[16],64.7%
same,"viability, T/C",[17],53.6%
same,"viability, T/C",[18],46.9%
same,"viability, T/C",[19],111%
same,"viability, T/C",[20],107%
same,"viability, T/C",[21],94.9%
same,"viability, T/C",[22],56.2%
same,"viability, T/C",[23],63.8%
same,"viability, T/C",[24],37.3%
same,"viability, T/C",[25],115%
same,"viability, T/C",[26],110%
same,"viability, T/C",[27],98%
same,"viability, T/C",[28],70.8%
same,"viability, T/C",[29],56.4%
same,"viability, T/C",[30],40.4%
same,"viability, T/C",[31],100%
same,"viability, T/C",[32],104%
same,"viability, T/C",[33],95.3%
same,"viability, T/C",[34],68.4%
same,"viability, T/C",[35],48.6%
same,"viability, T/C",[36],40.4%
CCCS(=O)(=O)Nc1ccc(F)c(C(=O)c2c[nH]c3ncc(-c4ccc(Cl)cc4)cc23)c1F + COC1C(OC(N)=O)C(O)C(Oc2ccc3c(O)c(NC(=O)c4ccc(O)c(CC=C(C)C)c4)c(=O)oc3c2C)OC1(C)C,IC50,second compound 0.0316 µM,6.22 µM
same,IC50,second compound 0.1 µM,5.9 µM
same,IC50,second compound 0.316 µM,5.7 µM
same,IC50,second compound 1 µM,5.66 µM
same,IC50,second compound 3.16 µM,6.01 µM
same,IC50,second compound 10 µM,5.82 µM
same,"viability, T/C",[1],99.9%
same,"viability, T/C",[2],99.7%
same,"viability, T/C",[3],100%
same,"viability, T/C",[4],108%
same,"viability, T/C",[5],97.1%
same,"viability, T/C",[6],16.8%
same,"viability, T/C",[7],98.2%
same,"viability, T/C",[8],116%
same,"viability, T/C",[9],102%
same,"viability, T/C",[10],107%
same,"viability, T/C",[11],91.1%
same,"viability, T/C",[12],15.2%
same,"viability, T/C",[13],109%
same,"viability, T/C",[14],113%
same,"viability, T/C",[15],95.8%
same,"viability, T/C",[16],99.7%
same,"viability, T/C",[17],83.8%
same,"viability, T/C",[18],18.9%
same,"viability, T/C",[19],113%
same,"viability, T/C",[20],103%
same,"viability, T/C",[21],96.7%
same,"viability, T/C",[22],105%
same,"viability, T/C",[23],86.4%
same,"viability, T/C",[24],14.1%
same,"viability, T/C",[25],96.6%
same,"viability, T/C",[26],99.7%
same,"viability, T/C",[27],98.1%
same,"viability, T/C",[28],107%
same,"viability, T/C",[29],91.3%
same,"viability, T/C",[30],16.9%
same,"viability, T/C",[31],106%
same,"viability, T/C",[32],97.8%
same,"viability, T/C",[33],104%
same,"viability, T/C",[34],93%
same,"viability, T/C",[35],89.9%
same,"viability, T/C",[36],15.8%
O=c1[nH]cc(F)c(=O)[nH]1 + Cc1cccc(N(C)C(=O)C2C(O)CCN2c2nc(C)cc(C(F)(F)F)c2C#N)c1,IC50,second compound 0.0316 µM,> 10 µM
same,IC50,second compound 0.1 µM,> 10 µM
same,IC50,second compound 0.316 µM,> 10 µM
same,IC50,second compound 1 µM,> 10 µM
same,IC50,second compound 3.16 µM,> 10 µM
same,IC50,second compound 10 µM,> 10 µM
same,"viability, T/C",[1],92.1%
same,"viability, T/C",[2],108%
same,"viability, T/C",[3],69.8%
same,"viability, T/C",[4],68.6%
same,"viability, T/C",[5],61.2%
same,"viability, T/C",[6],56.3%
same,"viability, T/C",[7],101%
same,"viability, T/C",[8],108%
same,"viability, T/C",[9],68.7%
same,"viability, T/C",[10],61.7%
same,"viability, T/C",[11],60.1%
same,"viability, T/C",[12],63.4%
same,"viability, T/C",[13],102%
same,"viability, T/C",[14],116%
same,"viability, T/C",[15],75.6%
same,"viability, T/C",[16],57.5%
same,"viability, T/C",[17],56.9%
same,"viability, T/C",[18],66.8%
same,"viability, T/C",[19],106%
same,"viability, T/C",[20],99.7%
same,"viability, T/C",[21],68.6%
same,"viability, T/C",[22],65.1%
same,"viability, T/C",[23],56.2%
same,"viability, T/C",[24],58.2%
same,"viability, T/C",[25],99.9%
same,"viability, T/C",[26],102%
same,"viability, T/C",[27],70%
same,"viability, T/C",[28],63.6%
same,"viability, T/C",[29],59.9%
same,"viability, T/C",[30],64.2%
same,"viability, T/C",[31],97.6%
same,"viability, T/C",[32],106%
same,"viability, T/C",[33],70.3%
same,"viability, T/C",[34],54.9%
same,"viability, T/C",[35],54.5%
same,"viability, T/C",[36],59.6%
